Paper PMC8470104, “Anti-Metatype Antibody Screening, Sandwich Immunoassay Development, and Structural Insights for β-Lactams Based on Penicillin Binding Protein” (Molecules, 2021)

What was measured:
PBP2x* = PBP2x* (Streptococcus pneumoniae, UniProt P14677); assay: direct competitive ELISA, binding affinity of β-lactams to PBP2x*; settings: for IC50: IC50 (affinity to PBP2x*)
Description: The anti-metatype antibodies that recognize the complex formed by the receptor and ligand was developed by immunization. The success of the immunization depends on the stability of the receptor–drug complex. In the present study, we hypothesized that the complex formed by PBP2x* and β-lactams with high affinity to PBP2x* would achieve higher stability, because more non-covalent bonds typically tend to form between the two. In addition, the conformational change of PBP2x* induced by the combination of the β-lactams with high affinity may be greater due to the existence of more interaction forces, which stimulate the PBP2x* to some extent. Therefore, a direct competitive ELISA was carried out to determine the affinity of 18 β-lactams to PBP2x*. […] In the cephalosporin group, CPZ, CFN, CFZ, and CFM performed poorly: affinities with IC50 were greater than 10 ng/mL, which was almost 2–50-fold that of other drugs such as CTRX, CTX, and KF. (Table 2). Therefore, for the preparation of anti-metatype antibodies, five β-lactams (including PNG, AMP, AMX, CTX, and KF) with high affinity to PBP2x* were selected to form a complex with PBP2x*.
The PBP2x* (100 μL/well) was diluted to an appropriate concentration and coated on microtiter plates, and incubated overnight at 4 °C. After the solution was poured, the plates were washed 3 times with washing buffer and patted dry. Then, 150 μL of blocking solution was added to each well, followed by 1 h of incubation at 37 °C. The β-lactam standards (50 μL), which were diluted to a series of concentrations, were added into each well, then 50 μL of the enzyme marker prepared in our previous study was added, and incubated at 37 °C for 30 min. After the washing procedure, the color was developed by adding tetramethylbenzidine (TMB) substrate. Finally, 2 M H2SO4 (50 μL/well) was used to stop the enzymatic reaction, and the optical density (OD) values of 450 nm was measured.

[1] = tested on: PBP2x*-β-lactam complexes; assay: sandwich immunoassay of 18 PBP2x*-β-lactam complexes (capture mAb 4H11, detection pAb #5); type: binding; settings: 1000 ng/mL; mAb 4H11 capture, pAb #5 detection; n = 3; S/N > 1 positive detection
Experimental: Microtiter plates were coated with 100 μL anti-mouse IgG antibody in CB buffer and incubated at 4 °C overnight. The plates were subsequently washed and blocked with 150 μL of 2% skim milk. Then, 100 μL of diluted mAb was added to the wells and incubated for 1 h at 37 °C. After washing, 100 μL individual PBP2x* or receptor–ligand complexes of 18 β-lactams with PBP2x* that were diluted to 1 μg/mL was added. The incubation was carried out at 37 °C for 1 h, followed by another washing procedure. Then, 100 μL diluted HRP-labeled pAb was added to the wells and incubated for 1 h at 37 °C. The TMB substrate solution was added after washing, followed by the addition of 2 M H2SO4 to stop the reaction, and finally the OD values were measured at 450 nm.

[2] = PBP2x* coated, enzyme marker competitor

Chain of PBP2x* (P14677 49-750): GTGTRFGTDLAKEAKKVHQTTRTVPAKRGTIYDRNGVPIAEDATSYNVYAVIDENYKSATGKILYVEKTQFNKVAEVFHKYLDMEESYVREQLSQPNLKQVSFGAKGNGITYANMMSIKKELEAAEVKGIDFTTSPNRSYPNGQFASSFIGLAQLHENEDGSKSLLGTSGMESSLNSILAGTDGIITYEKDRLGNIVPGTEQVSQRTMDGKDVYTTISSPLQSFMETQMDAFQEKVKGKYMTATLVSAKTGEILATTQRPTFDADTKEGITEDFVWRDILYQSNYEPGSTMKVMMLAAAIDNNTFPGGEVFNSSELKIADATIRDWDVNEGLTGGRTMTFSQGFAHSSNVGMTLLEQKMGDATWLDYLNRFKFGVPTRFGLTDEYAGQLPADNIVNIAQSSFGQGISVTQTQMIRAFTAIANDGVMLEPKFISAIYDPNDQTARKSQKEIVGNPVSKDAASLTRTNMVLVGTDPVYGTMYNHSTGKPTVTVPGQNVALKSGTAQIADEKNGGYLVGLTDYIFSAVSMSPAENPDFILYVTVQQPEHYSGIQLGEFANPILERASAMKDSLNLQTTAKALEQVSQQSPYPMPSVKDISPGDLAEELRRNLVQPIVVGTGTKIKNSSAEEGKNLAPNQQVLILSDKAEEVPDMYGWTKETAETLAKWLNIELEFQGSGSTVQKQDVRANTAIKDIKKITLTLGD

For `CC(=O)OCC1=C(C(=O)O)N2C(=O)[C@@H](NC(=O)Cc3cccs3)[C@H]2SC1` [KF, Cefalothin], the “affinity to PBP2x* (in words)” value (PBP2x*) was “high affinity”, the “IC50 (affinity to PBP2x*)” value (PBP2x*; [2]) was 7.89 ng/mL and the “Signal-to-noise ratio (S/N) of the sandwich immunoassay” value (“Signal-to-noise ratio (S/N)” for short) [1] was < 1.

In the case of `CC1(C)S[C@@H]2[C@H](NC(=O)[C@H](N)c3ccc(O)cc3)C(=O)N2[C@H]1C(=O)O` [AMX, Amoxicillin], the “affinity to PBP2x* (in words)” value (PBP2x*) is reported as “high affinity”, the IC50 (PBP2x*; [2]) is reported as 18.7 nM and the “Signal-to-noise ratio (S/N)” value [1] is reported as < 1.

In the case of `CO/N=C(\C(=O)N[C@@H]1C(=O)N2C(C(=O)O)=C(CSc3nc(=O)c(=O)[nH]n3C)CS[C@H]12)c1csc(N)n1` [CTRX, Cefatriaxone], the IC50 (PBP2x*; [2]) is reported as 4.24 nM.

In the case of `CO/N=C(\C(=O)N[C@@H]1C(=O)N2C(C(=O)[O-])=C(C[N+]3(C)CCCC3)CS[C@H]12)c1csc(N)n1` [CFP, Cefepime], the IC50 (PBP2x*; [2]) is reported as 15.2 nM.

`C=CC1=C(C(=O)O)N2C(=O)[C@@H](NC(=O)/C(=N\OCC(=O)O)c3csc(N)n3)[C@H]2SC1` [CFM, Cefixime] was tested, and the IC50 (PBP2x*; [2]) was 64.7 nM.

For `CCN1CCN(C(=O)N[C@@H](C(=O)N[C@@H]2C(=O)N3[C@@H]2SC(C)(C)[C@@H]3C(=O)O)c2ccccc2)C(=O)C1=O` [PIPC, Piperacillin], the “affinity to PBP2x* (in words)” value (PBP2x*) was “high affinity” and the IC50 (PBP2x*; [2]) was 15 nM.

`Cc1onc(-c2ccccc2Cl)c1C(=O)N[C@@H]1C(=O)N2[C@@H]1SC(C)(C)[C@@H]2C(=O)O` [CLX, Cloxacillin] was tested, and the “affinity to PBP2x* (in words)” value (PBP2x*) was “relatively poor affinity” and the IC50 (PBP2x*; [2]) was 173 nM.

Work on `CC(=O)OCC1=C(C(=O)O)N2C(=O)[C@@H](NC(=O)CSc3ccncc3)[C@H]2SC1` [CFAP, Cefapirin] yielded an IC50 (PBP2x*; [2]) of 14.3 nM.

With `CC1(C)S[C@@H]2[C@H](NC(=O)[C@H](NC(=O)N3CCNC3=O)c3ccccc3)C(=O)N2[C@H]1C(=O)O` [AZL, Azlocillin] the “affinity to PBP2x* (in words)” value (PBP2x*) was “high affinity” and the IC50 (PBP2x*; [2]) was 14.5 nM.

Work on `CO/N=C(\C(=O)N[C@@H]1C(=O)N2C(C(=O)O)=C(CSC(=O)c3ccco3)CS[C@H]12)c1csc(N)n1` [CFT, Ceftiofur] yielded an IC50 (PBP2x*; [2]) of 5.02 nM.

In the case of `CCN1CCN(C(=O)N[C@@H](C(=O)N[C@@H]2C(=O)N3C(C(=O)O)=C(CSc4nnnn4C)CS[C@H]23)c2ccc(O)cc2)C(=O)C1=O` [CPZ, Cefoperazone], the IC50 (PBP2x*; [2]) is reported as 155 nM.

For `CO/N=C(\C(=O)N[C@@H]1C(=O)N2C(C(=O)O)=C(COC(C)=O)CS[C@H]12)c1csc(N)n1` [CTX, Cefotaxime], the “affinity to PBP2x* (in words)” value (PBP2x*) was “high affinity” and the IC50 (PBP2x*; [2]) was 10.4 nM.

For `Cc1onc(-c2c(Cl)cccc2Cl)c1C(=O)N[C@@H]1C(=O)N2[C@@H]1SC(C)(C)[C@@H]2C(=O)O` [DCX, Dicloxacillin], the “affinity to PBP2x* (in words)” value (PBP2x*) was “relatively poor affinity” and the IC50 (PBP2x*; [2]) was 32.6 nM.

In the case of `Cc1onc(-c2ccccc2)c1C(=O)N[C@@H]1C(=O)N2[C@@H]1SC(C)(C)[C@@H]2C(=O)O` [OXA, Oxacillin], the “affinity to PBP2x* (in words)” value (PBP2x*) is reported as “relatively poor affinity” and the IC50 (PBP2x*; [2]) is reported as 25.1 nM.

In the case of `CC1(C)S[C@@H]2[C@H](NC(=O)[C@H](N)c3ccccc3)C(=O)N2[C@H]1C(=O)O` [AMP, Ampicillin], the “affinity to PBP2x* (in words)” value (PBP2x*) is reported as “high affinity”, the IC50 (PBP2x*; [2]) is reported as 22.3 nM and the “Signal-to-noise ratio (S/N)” value [1] is reported as < 1.

Compound `NC(=O)c1cc[n+](CC2=C(C(=O)[O-])N3C(=O)[C@@H](NC(=O)Cc4cccs4)[C@H]3SC2)cc1` [CFN, Cefalonium] has an IC50 (PBP2x*; [2]) of 33.4 nM.

For `CC1(C)S[C@@H]2[C@H](NC(=O)Cc3ccccc3)C(=O)N2[C@H]1C(=O)O` [PNG, Penicillin G], the “affinity to PBP2x* (in words)” value (PBP2x*) was “high affinity”, the IC50 (PBP2x*; [2]) was 10.6 nM and the “Signal-to-noise ratio (S/N)” value [1] was < 1.

`Cc1nnc(SCC2=C(C(=O)O)N3C(=O)[C@@H](NC(=O)Cn4cnnn4)[C@H]3SC2)s1` [CFZ, Cefazolin] showed an IC50 (PBP2x*; [2]) of 53.6 nM.
